Test results as given in ChEMBL document CHEMBL3046005, “New Insecticidal 4-Acetoxy-2-alkenylquinolines” (1996).

Columns and labels:
Type in all cases: functional
Bombyx mori [1] = test: Insecticidal activity against Bombyx mori larvae assessed as mortality at 10 ug administered topically measured after 48 hr
Bombyx mori [2] = test: Insecticidal activity against Bombyx mori larvae assessed as mortality at 40 ug administered topically measured after 48 hr
Bombyx mori [3] = test: Insecticidal activity against Bombyx mori larvae assessed as mortality at 2.5 ug administered topically measured after 48 hr
Bombyx mori [4] = test: Insecticidal activity against Bombyx mori larvae assessed as mortality at 0.63 ug administered topically measured after 48 hr
Laodelphax striatellus [5] = test: Insecticidal activity against Laodelphax striatella (small brown planthopper) larvae assessed as mortality at 500 ppm by leaf spray method
Laodelphax striatellus [6] = test: Insecticidal activity against Laodelphax striatella (small brown planthopper) larvae assessed as mortality at 250 ppm by leaf spray method
Plutella xylostella [7] = test: Insecticidal activity against Plutella xylostella (diamondback moth) larvae assessed as mortality at 500 ppm by leaf spray method
Tetranychus urticae [8] = test: Insecticidal activity against Tetranychus urticae (two-spotted spider mite) eggs assessed as mortality at 1000 ppm by leaf spray method
Plutella xylostella [9] = test: Insecticidal activity against Plutella xylostella (diamondback moth) larvae assessed as mortality at 1000 ppm by leaf spray method
Laodelphax striatellus [10] = test: Insecticidal activity against Laodelphax striatella (small brown planthopper) larvae assessed as mortality at 1000 ppm by leaf spray method
Tetranychus urticae [11] = test: Insecticidal activity against Tetranychus urticae (two-spotted spider mite) eggs assessed as mortality at 500 ppm by leaf spray method
Tetranychus urticae [12] = test: Insecticidal activity against Tetranychus urticae (two-spotted spider mite) eggs assessed as mortality at 250 ppm by leaf spray method
Plutella xylostella [13] = test: Insecticidal activity against Plutella xylostella (diamondback moth) larvae assessed as mortality at 250 ppm by leaf spray method

Structure (SMILES)	Activity (Bombyx mori [1])	Activity (Bombyx mori [2])	Activity (Bombyx mori [3])	Activity (Bombyx mori [4])	further results
CCCCC/C=C/C=C/c1nc2ccccc2c(OC(C)=O)c1C	0%	100%	0%	–	–
CCCCCCC/C=C/c1nc2ccccc2c(OC(C)=O)c1C	100%	100%	100%	0%	–
CCCCCCC/C=C\c1nc2ccccc2c(O)c1C	20%	70%	0%	–	–
CCCCCC/C=C/Cc1[nH]c2ccccc2c(=O)c1C	0%	20%	0%	–	–
CCCCCC/C=C/Cc1nc2ccccc2c(OC(C)=O)c1C	100%	100%	100%	15%	–
CCCCC/C=C/C=C/c1nc2ccccc2c(O)c1C	0%	0%	0%	–	–
CCCCCC/C=C/C(O)c1nc2ccccc2c(O)c1C (configuration not stated)	0%	5%	0%	–	–
CCCCCCC/C=C\c1nc2ccccc2c(OC(C)=O)c1C	100%	100%	100%	65%	Activity (Laodelphax striatellus [5]): 94%; Activity (Laodelphax striatellus [6]): 76%; Activity (Plutella xylostella [7]): 100%; Activity (Tetranychus urticae [8]): 100%; Activity (Plutella xylostella [9]): 100%; Activity (Laodelphax striatellus [10]): 100%; Activity (Tetranychus urticae [11]): 100%; Activity (Tetranychus urticae [12]): 68.2%; Activity (Plutella xylostella [13]): 100%
CCCCCC/C=C/C(O)c1nc2ccccc2c(OC(C)=O)c1C (configuration not stated)	10%	85%	0%	–	–
CCCCCCC/C=C/c1nc2ccccc2c(O)c1C	0%	0%	0%	–	–
